pIC50: −log10 of the molar value.
Assays:
huIL-27 = molecular target: T1, huIL-27 (Homo sapiens, UniProt Q14213+Q8NEV9); assay: Phospho-STAT3 neutralization assay, total human PBMCs, huIL-27; assay type: cell-based; details: Total Human PBMCs; ligand huIL-27 at EC90
T1 sequence (Q14213 21-229): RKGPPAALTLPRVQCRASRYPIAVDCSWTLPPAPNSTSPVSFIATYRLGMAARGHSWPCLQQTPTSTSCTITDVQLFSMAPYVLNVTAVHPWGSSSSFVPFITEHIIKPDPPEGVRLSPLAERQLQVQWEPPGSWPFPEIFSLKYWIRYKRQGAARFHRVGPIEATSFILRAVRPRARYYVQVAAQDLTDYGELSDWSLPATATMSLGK
T1 sequence (Q8NEV9 29-243): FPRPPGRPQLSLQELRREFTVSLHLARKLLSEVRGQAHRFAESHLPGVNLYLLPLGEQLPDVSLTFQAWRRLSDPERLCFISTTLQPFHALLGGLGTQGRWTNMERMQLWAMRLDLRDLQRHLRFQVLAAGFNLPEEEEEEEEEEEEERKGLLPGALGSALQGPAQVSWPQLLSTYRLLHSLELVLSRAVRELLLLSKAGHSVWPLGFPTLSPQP
Description: (§1) Whole mouse spleens were harvested from C57 B1/6 mice and washed two times with 1×PBS before being plated out at 2×10^5 cells/well in assay media (RPMI 1640 plus 10% fetal bovine serum) in 96-well, round-bottom tissue culture plates. Total human PBMC (peripheral blood mononuclear cells) were thawed from a frozen vial collected from a leukapherisis donation and washed two times with 1×PBS before being plated out at 10^6 cells/well in assay media in 96-well, round-bottom tissue culture plates. […] Following pre-incubation, treatments were added to the plates containing the cells and incubated together at 37° C. for 15 minutes.
(§2) Following incubation, cells were washed with ice-cold wash buffer (BIO-PLEX Cell Lysis Kit, BIO-RAD Laboratories, Hercules, Calif.) and put on ice to stop the reaction according to manufacturer's instructions. […]
(§3) Capture beads (BIO-PLEX Phospho-Stat3 Assay, BIO-RAD Laboratories) were combined with 50 μL of 1:1 diluted lysates and added to a 96-well filter plate according to manufacture's instructions (BIO-PLEX Phosphoprotein Detection Kit, BIO-RAD Laboratories). […] After the final wash, beads were resuspended in 125 μL/well of bead suspension buffer, shaken for 30 seconds, and read on an array reader (BIO-PLEX, BIO-RAD Laboratories) according to the manufacture's instructions. Data were analyzed using analytical softward (BIO-PLEX MANAGER 3.0, BIO-RAD Laboratories). […]

muIL-27 = molecular target: T2, muIL-27 (Mus musculus, UniProt O35228+Q8K3I6); assay: Phospho-STAT3 neutralization assay, mouse spleens, muIL-27; assay type: cell-based; details: ligand muIL-27 at EC90
T2 sequence (O35228 19-228): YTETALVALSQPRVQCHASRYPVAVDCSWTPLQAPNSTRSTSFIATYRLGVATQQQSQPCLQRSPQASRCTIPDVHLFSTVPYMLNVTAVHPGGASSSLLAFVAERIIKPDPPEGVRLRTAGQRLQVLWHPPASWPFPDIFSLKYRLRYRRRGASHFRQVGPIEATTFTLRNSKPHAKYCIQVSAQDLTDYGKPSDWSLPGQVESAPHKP
T2 sequence (Q8K3I6 29-234): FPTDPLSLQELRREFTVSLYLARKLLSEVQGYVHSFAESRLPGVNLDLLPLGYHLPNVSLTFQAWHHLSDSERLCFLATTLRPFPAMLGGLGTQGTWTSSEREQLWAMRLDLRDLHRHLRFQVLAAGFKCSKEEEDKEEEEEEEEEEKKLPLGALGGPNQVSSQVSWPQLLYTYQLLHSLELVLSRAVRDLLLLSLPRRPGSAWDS
Description: as §1, §2, §3

[1] = tested on: serum IgG1, IgG2a, IgE and cytokines; assay: Serum immunoglobulin and cytokine levels in acute GVHD model; assay type: in vivo, mouse; details: serum level
Procedure: Efficacy of IL-27 antagonists was assayed in a mouse model of acute graft-vs-host disease (Durie et al., J. Clin. Invest. 94:1333-1338, 1994). Parental mice (C57BL/6; n=12) were euthanized, and their spleens were collected. The pooled spleens were smashed using two glass slides to dissociate splenic cells. Lysis buffer was added to the splenocyte suspension to remove red blood cells. The cells were washed in RPMI 1640 (10% FBS) medium and resuspended in an appropriate amount of PBS to make a cell concentration of 300 million cells/ml. Protein treatments were administered by intraperitoneal injection every other day beginning on day-1 and continuing until day 15. Dexamethasone (DEX) was administered by injection daily on days 0 through 6. On day 0, 75 million donor splenic lymphocytes from B6 mice (250 .micro.l per injection) were injected intravenously into recipient mice (C57BL/6×DBA/2 F1 (BDF1); n=10 per group) mice. Mice were monitored 3 times a week for changes in body weight and any signs of moribundity. Mice that lost >20% of their initial body weight were euthanized. Otherwise, mice were sacrificed 18 days after the cell transfer. Spleens were collected, and a CTL-specific lysis assay using P815 cells was performed as a quantitative measurement of acute GVHD. Furthermore, spleens were stained for T- and B-cell markers, including MHC class I markers (H2^b and H2^d) to look at donor/recipient cell ratio (acute GVHD spleen cells are mostly donor cells). Sera were collected to measure serum level of IgG1, IgG2a, and IgE by ELISA, and cytokine and chemokine levels using a commercially available kit (Luminex Corporation, Austin, Tex.).

- pIC50 (huIL-27): 9.02
- pIC50 (muIL-27): 9.85
Substance: human IL-27RA-Fc5: human IL27RA extracellular domain (amino acids 1 to 512 of SEQ ID NO:5) fused to Fc5, effector minus human gamma1 Fc; SEQ ID NO:3
- IL-2 [1]: ↑↑↑
- IL-5 [1]: ↑↑
- IL-6 [1]: ↓↓↓
- IgE [1]: ↑
- IgG1 [1]: ↑↑
- IgG2A [1]: ↑↑

— patent US20100092465A1, “TREATMENT OF GRAFT-VERSUS-HOST DISEASE” (priority 2006, published 2010)
